From US12258327B2, “5-membered heteroaryl-containing aminopyridine compounds as EGFR inhibitors” (YUHAN CORPORATION, priority 2021, dated 2025)
pIC50: −log10 of the molar value. Read-outs that look alike come from different tables or passages of the source.

Tests used:
EGFR wildtype (WT) = EGFR wildtype (WT) (Homo sapiens, UniProt P00533); test: Biochemical EGFR kinase assay (Lance Ultra TR-FRET), wildtype
Procedure, shortened: (§1)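 Enzyme reactions lasted 1 hour at room temperature with test compounds between 0.003 and 10 μM, followed by 10 mM EDTA quench.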

EGFR L858R/C797S = EGFR L858R/C797S (Homo sapiens, UniProt P00533, C797S/L858R); test: Biochemical EGFR kinase assay (Lance Ultra TR-FRET), double mutant L858R/C797S
EGFR L858R/C797S, sequence (P00533 25-1210 C797S/L858R): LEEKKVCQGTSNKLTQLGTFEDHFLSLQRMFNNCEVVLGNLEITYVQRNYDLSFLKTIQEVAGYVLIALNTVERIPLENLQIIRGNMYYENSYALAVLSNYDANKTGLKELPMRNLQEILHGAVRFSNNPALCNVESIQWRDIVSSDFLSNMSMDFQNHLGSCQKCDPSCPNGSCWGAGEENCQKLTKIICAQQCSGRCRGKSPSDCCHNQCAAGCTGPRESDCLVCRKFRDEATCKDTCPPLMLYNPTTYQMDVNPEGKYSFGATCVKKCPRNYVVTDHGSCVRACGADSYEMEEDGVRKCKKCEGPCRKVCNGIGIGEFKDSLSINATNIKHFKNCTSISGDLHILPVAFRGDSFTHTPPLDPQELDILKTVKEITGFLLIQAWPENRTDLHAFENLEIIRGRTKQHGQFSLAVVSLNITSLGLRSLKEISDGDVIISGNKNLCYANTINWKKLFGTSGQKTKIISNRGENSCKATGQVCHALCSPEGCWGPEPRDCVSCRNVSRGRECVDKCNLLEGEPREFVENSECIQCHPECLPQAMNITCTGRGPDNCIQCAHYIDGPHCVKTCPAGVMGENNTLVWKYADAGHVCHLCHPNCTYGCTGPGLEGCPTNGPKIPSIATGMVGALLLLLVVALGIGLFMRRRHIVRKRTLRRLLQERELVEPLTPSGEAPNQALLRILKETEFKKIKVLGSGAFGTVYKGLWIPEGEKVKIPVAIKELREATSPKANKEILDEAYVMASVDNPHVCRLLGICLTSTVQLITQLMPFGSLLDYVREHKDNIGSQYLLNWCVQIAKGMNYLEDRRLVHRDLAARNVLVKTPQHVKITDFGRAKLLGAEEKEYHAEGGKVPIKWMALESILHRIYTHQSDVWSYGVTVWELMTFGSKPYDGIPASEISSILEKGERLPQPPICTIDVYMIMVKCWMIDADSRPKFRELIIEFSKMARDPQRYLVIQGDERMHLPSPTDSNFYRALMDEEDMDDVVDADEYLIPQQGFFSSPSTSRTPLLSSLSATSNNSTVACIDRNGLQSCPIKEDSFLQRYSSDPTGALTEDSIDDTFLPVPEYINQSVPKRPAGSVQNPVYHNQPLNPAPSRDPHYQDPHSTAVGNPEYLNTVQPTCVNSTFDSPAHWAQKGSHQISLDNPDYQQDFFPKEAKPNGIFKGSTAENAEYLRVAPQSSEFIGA
Procedure, shortened: as §1

EGFR del19/C797S = EGFR del19/C797S (Homo sapiens, UniProt P00533, C797S/DEL746-750); test: Biochemical EGFR kinase assay (Lance Ultra TR-FRET), double mutant del19/C797S
EGFR del19/C797S, sequence (P00533 with tags, fused parts or gaps DEL746-750/C797S): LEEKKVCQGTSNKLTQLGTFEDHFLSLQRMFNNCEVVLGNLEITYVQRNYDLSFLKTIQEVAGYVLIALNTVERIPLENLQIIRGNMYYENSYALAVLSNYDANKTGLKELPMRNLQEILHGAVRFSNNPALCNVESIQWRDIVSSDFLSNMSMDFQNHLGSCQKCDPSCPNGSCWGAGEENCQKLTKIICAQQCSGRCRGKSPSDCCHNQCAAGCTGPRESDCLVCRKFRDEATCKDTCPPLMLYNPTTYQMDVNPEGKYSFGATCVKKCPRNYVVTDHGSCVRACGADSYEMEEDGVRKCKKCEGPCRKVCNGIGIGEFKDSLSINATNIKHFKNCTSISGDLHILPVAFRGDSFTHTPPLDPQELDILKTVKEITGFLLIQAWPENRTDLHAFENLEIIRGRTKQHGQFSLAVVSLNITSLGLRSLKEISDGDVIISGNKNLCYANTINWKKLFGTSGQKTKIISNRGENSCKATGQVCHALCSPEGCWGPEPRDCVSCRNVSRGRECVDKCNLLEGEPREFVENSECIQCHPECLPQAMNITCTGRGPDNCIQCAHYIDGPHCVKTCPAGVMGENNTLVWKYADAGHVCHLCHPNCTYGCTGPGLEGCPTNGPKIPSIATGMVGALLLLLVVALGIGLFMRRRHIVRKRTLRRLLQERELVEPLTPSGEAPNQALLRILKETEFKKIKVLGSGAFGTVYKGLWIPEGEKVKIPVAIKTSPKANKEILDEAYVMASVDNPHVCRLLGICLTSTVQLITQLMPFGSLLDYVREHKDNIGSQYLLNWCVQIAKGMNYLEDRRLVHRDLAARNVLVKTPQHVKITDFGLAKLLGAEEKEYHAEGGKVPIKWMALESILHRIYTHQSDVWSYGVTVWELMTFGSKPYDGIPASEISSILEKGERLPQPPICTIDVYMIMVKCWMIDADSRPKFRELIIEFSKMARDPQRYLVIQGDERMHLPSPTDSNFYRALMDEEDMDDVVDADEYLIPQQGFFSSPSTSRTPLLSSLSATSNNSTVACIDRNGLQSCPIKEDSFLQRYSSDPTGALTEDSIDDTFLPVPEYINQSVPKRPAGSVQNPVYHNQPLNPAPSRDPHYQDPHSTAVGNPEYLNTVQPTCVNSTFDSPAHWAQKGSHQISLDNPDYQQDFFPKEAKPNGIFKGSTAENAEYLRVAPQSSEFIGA
Procedure, shortened: as §1

EGFR del19/T790M/C797S = EGFR del19/T790M/C797S (Homo sapiens, UniProt P00533, C797S/DEL746-750/T790M); test: Biochemical EGFR kinase assay (Lance Ultra TR-FRET), triple mutant del19/T790M/C797S
EGFR del19/T790M/C797S, sequence (P00533 with tags, fused parts or gaps DEL746-750/T790M/C797S): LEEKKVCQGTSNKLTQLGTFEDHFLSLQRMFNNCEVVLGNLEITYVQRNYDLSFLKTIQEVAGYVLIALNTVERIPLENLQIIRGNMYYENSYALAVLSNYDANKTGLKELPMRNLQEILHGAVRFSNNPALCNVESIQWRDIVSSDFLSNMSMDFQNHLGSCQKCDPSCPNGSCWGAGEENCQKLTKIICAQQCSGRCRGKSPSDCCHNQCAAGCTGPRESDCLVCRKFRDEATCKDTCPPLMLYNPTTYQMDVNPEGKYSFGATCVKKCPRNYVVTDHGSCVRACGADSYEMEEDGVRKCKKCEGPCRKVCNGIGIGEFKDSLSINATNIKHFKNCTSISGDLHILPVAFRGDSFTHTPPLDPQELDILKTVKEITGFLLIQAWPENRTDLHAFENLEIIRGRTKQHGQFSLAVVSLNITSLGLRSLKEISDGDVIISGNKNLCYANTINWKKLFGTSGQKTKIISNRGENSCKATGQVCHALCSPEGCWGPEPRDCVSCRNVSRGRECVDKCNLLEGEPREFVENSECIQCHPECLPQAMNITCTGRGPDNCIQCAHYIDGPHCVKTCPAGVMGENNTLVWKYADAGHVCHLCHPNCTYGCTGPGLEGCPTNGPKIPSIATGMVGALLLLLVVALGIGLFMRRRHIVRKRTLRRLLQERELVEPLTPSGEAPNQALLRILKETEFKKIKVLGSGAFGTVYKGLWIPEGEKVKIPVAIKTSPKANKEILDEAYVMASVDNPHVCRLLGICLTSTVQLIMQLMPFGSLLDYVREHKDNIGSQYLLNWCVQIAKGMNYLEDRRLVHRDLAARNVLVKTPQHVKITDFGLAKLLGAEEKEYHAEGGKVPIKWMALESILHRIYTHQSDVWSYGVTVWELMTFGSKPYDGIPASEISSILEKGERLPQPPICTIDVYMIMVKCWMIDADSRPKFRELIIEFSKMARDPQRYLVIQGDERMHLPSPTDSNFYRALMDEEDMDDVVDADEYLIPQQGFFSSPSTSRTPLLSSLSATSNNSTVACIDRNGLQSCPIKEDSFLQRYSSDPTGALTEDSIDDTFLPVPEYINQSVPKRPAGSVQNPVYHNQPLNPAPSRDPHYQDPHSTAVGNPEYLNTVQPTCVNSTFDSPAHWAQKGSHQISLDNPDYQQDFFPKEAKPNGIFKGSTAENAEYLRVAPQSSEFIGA
Procedure, shortened: as §1

EGFR L858R/T790M/C797S = EGFR L858R/T790M/C797S (Homo sapiens, UniProt P00533, C797S/L858R/T790M); test: Biochemical EGFR kinase assay (Lance Ultra TR-FRET), triple mutant L858R/T790M/C797S
Procedure, shortened: as §1

[1] = IC50 WT (nM) 100 μM ATP, 100 μM ATP
[2] = Km ATP, read-out: IC50 WT (nM) Km ATP
[3] = IC50 L858R/C797S (nM) 100 μM ATP, 100 μM ATP
[4] = Km ATP, read-out: IC50 L858R/C797S (nM) Km ATP
[5] = IC50 del19/C797S (nM) 100 μM ATP, 100 μM ATP
[6] = Km ATP, read-out: IC50 del19/C797S (nM) Km ATP
[7] = IC50 del19/T790M/C797S (nM) 100 μM ATP, 100 μM ATP
[8] = Km ATP, read-out: IC50 del19/T790M/C797S (nM) Km ATP
[9] = IC50 L858R/T790M/C797S (nM) 100 μM ATP, 100 μM ATP
[10] = Km ATP, read-out: IC50 L858R/T790M/C797S (nM) Km ATP

EGFR wildtype (WT), sequence (P00533 25-1210): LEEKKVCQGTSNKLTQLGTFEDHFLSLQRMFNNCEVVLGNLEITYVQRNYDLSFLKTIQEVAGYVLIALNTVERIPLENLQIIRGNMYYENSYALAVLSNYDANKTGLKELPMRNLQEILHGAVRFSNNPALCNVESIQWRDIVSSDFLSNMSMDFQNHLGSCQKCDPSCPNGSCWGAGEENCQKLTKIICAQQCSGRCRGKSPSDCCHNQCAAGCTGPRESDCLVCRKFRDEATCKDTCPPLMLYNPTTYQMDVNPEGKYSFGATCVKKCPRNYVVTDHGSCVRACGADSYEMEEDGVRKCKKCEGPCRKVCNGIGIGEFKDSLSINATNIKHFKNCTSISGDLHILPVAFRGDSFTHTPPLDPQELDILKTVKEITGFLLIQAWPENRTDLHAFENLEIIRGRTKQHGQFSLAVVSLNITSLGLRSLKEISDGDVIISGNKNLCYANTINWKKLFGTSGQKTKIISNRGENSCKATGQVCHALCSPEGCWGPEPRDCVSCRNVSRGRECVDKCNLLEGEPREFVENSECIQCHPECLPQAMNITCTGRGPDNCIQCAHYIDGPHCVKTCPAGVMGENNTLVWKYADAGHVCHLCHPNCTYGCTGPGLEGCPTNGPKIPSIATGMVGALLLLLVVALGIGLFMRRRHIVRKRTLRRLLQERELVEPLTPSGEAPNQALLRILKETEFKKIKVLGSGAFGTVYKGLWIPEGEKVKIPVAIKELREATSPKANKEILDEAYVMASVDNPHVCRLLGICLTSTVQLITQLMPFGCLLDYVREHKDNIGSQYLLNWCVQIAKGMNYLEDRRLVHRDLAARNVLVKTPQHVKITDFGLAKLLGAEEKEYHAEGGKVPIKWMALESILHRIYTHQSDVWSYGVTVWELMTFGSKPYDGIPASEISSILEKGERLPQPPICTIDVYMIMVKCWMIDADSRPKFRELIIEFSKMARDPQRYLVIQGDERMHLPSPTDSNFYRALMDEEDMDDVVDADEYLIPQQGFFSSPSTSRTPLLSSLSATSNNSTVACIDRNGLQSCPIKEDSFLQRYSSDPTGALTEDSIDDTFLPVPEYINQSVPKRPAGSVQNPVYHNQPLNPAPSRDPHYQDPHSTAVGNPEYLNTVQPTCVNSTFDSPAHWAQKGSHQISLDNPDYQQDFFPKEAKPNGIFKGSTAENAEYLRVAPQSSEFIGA

Row | SMILES | pIC50 (EGFR wildtype (WT); Km ATP, read-out: IC50 WT, Km ATP) | pIC50 (EGFR L858R/C797S; Km ATP, read-out: IC50 L858R/C797S, Km ATP) | pIC50 (EGFR del19/C797S; Km ATP, read-out: IC50 del19/C797S, Km ATP) | pIC50 (EGFR del19/T790M/C797S; Km ATP, read-out: IC50 del19/T790M/C797S, Km ATP) | pIC50 (EGFR L858R/T790M/C797S; Km ATP, read-out: IC50 L858R/T790M/C797S, Km ATP) | IC50 (EGFR wildtype (WT); [1]) [nM] | IC50 (EGFR wildtype (WT); [2]) [nM] | IC50 (EGFR L858R/C797S; [3]) [nM] | IC50 (EGFR L858R/C797S; [4]) [nM] | IC50 (EGFR del19/C797S; [5]) [nM] | IC50 (EGFR del19/C797S; [6]) [nM] | IC50 (EGFR del19/T790M/C797S; [7]) [nM] | IC50 (EGFR del19/T790M/C797S; [8]) [nM] | IC50 (EGFR L858R/T790M/C797S; [9]) [nM] | IC50 (EGFR L858R/T790M/C797S; [10]) [nM]
1 | O=S(=O)(C1CC1)n1cc(-c2nccc(Nc3cc(NC4CCC(CCO)CC4)c(-c4ccn(C(F)F)n4)cn3)n2)cn1 (centres unmarked) [Example 133, 2-((1r,4r)-4-((2-((2-(1-(Cyclopropylsulfonyl)-1H-pyrazol-4-yl)pyrimidin-4-yl)amino)-5-(1-(difluoromethyl)-1H-pyrazol-3-yl)pyridin-4-yl)amino)cyclohexyl)ethan-1-ol] |  |  |  |  |  | > 10000 | 92.1 | 99.3 | 1 | 1.4 | 0.3 | 0.5 | 0.3 | 3.2 | 0.1
2 | O=S(=O)(C1CC1)n1cc(-c2nccc(Nc3cc(N[C@H]4CC[C@@H](NCCF)CC4)c(-c4cc5n(n4)CCCC5)cn3)n2)cn1 [Example 62, N^2-(2-(1-(Cyclopropylsulfonyl)-1H-pyrazol-4-yl)pyrimidin-4-yl)-N^4-((1s,4s)-4-((2-fluoroethyl)amino)cyclohexyl)-5-(4,5,6,7-tetrahydropyrazolo[1,5-a]pyridin-2-yl)pyridine-2,4-diamine] |  |  |  |  |  | 617 | 1.1 | 1.9 | 0.2 | 0.5 | 0.2 | 0.3 | 0.2 | 0.2 | 0.1
3 | CN(CC(F)F)C[C@H]1CC[C@@H](Nc2cc(Nc3ccnc(-c4cnn(S(=O)(=O)C5CC5)c4)n3)ncc2-c2ccn(C)n2)CC1 [Example 237, N^2-(2-(1-(Cyclopropylsulfonyl)-1H-pyrazol-4-yl)pyrimidin-4-yl)-N^4-((1s,4s)-4-(((2,2-difluoroethyl)(methyl)amino)methyl)cyclohexyl)-5-(1-methyl-1H-pyrazol-3-yl)pyridine-2,4-diamine] |  |  |  |  |  | 2800 | 15.5 | 61.4 | 6.5 | 6.7 | 17.5 | 7.4 | 12.1 | 5.4 | 3

Further lines, results first:

Row | pIC50 (EGFR wildtype (WT); Km ATP, read-out: IC50 WT, Km ATP) | pIC50 (EGFR L858R/C797S; Km ATP, read-out: IC50 L858R/C797S, Km ATP) | pIC50 (EGFR del19/C797S; Km ATP, read-out: IC50 del19/C797S, Km ATP) | pIC50 (EGFR del19/T790M/C797S; Km ATP, read-out: IC50 del19/T790M/C797S, Km ATP) | pIC50 (EGFR L858R/T790M/C797S; Km ATP, read-out: IC50 L858R/T790M/C797S, Km ATP) | IC50 (EGFR wildtype (WT); [1]) [nM] | IC50 (EGFR wildtype (WT); [2]) [nM] | IC50 (EGFR L858R/C797S; [3]) [nM] | IC50 (EGFR L858R/C797S; [4]) [nM] | IC50 (EGFR del19/C797S; [5]) [nM] | IC50 (EGFR del19/C797S; [6]) [nM] | IC50 (EGFR del19/T790M/C797S; [7]) [nM] | IC50 (EGFR del19/T790M/C797S; [8]) [nM] | IC50 (EGFR L858R/T790M/C797S; [9]) [nM] | IC50 (EGFR L858R/T790M/C797S; [10]) [nM] | SMILES
4 | 5.37 | 6.18 | 6.39 | 8.47 | 8.37 |  |  |  |  |  |  |  |  |  |  | CC(C)Nc1nc(Nc2ccnc(-c3cnn(S(=O)(=O)C4CC4)c3)c2)ncc1-c1ccn(C(F)F)n1 [Example 363, N^2-(2-(1-(Cyclopropylsulfonyl)-1H-pyrazol-4-yl)pyridin-4-yl)-5-(1-(difluoromethyl)-1H-pyrazol-3-yl)-N^4-isopropylpyrimidine-2,4-diamine]
5 |  |  |  |  |  | 8270 | 28.7 | 576 | 25.4 | 8.8 | 6.7 | 0.1 | 0.2 | 0.1 | 0.5 | CN(C)CC1(C)CCC(Nc2cc(Nc3ccnc(-c4cnn(S(=O)(=O)C5CC5)c4)n3)ncc2-c2ccn(CC(F)(F)F)n2)CC1 (centres unmarked) [Example 267, N^2-(2-(1-(Cyclopropylsulfonyl)-1H-pyrazol-4-yl)pyrimidin-4-yl)-N^4-(4-((dimethylamino)methyl)-4-methylcyclohexyl)-5-(1-(2,2,2-trifluoroethyl)-1H-pyrazol-3-yl)pyridine-2,4-diamine]
6 |  |  |  |  |  | 206 |  | 0.9 |  | 0.3 |  | 0.1 |  | 0.1 |  | CN(C)C[C@H]1CC[C@@H](Nc2cc(Nc3ccnc(-c4cnn(S(=O)(=O)C5CC5)c4)n3)ncc2-c2ccn(CC(F)(F)F)n2)CC1 [Example 266, N^2-(2-(1-(Cyclopropylsulfonyl)-1H-pyrazol-4-yl)pyrimidin-4-yl)-N^4-((1s,4s)-4-((dimethylamino)methyl)cyclohexyl)-5-(1-(2,2,2-trifluoroethyl)-1H-pyrazol-3-yl)pyridine-2,4-diamine]
